Assay results published in patent US20220024921A1, “1,3,4-OXADIAZOLONE COMPOUND AND PHARMACEUTICAL” (NIPPON SHINYAKU CO., LTD., priority 2018, published 2022).
pIC50: −log10 of the molar value. Structures can show the parent of a compound that is named as a salt.

Assays:
[1] = molecular target: T1, PIM1 serine/threonine kinase (Homo sapiens, UniProt P11309); assay: PIM1 serine/threonine kinase inhibitory effect; format: biochemical; settings: PIM1 serine/threonine kinase activity; ATP 40 μM; 30° C., 30 minutes
T1 construct: purchased Carna Bioscience, Inc
Outline: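 Compounds were tested in duplicate from 0.01 to 10000 nM final against PIM1 kinase (0.15 μg/ml). The reaction ran for 30 minutes at 30° C with 40 μM ATP and 0.5 μM biotin-tagged substrate at pH 7.0. Phosphorylation was read by time-resolved FRET (OD665/OD620) after 1 h; IC50 by non-linear fit.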

[2] = molecular target: PIM1 transgenic cells (Ba/F3) (Homo sapiens, UniProt P11309); assay: Proliferation inhibitory effect on PIM1 transgenic cells; format: cell-based, mouse; settings: proliferation inhibition, 72 hours, Cell Counting Kit-8, read-out: PIM1 IC50
Outline: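 Mouse Ba/F3 pro-B cells were retrovirally transduced with human PIM1 so that their proliferation depends on PIM1. Cells were treated with compound at 1–10000 nM final for 72 h, then read by CCK-8 (OD450−OD650). Inhibition was set against DMSO (0%) and no-cell blank (100%), and IC50 was obtained by two-parameter logistic regression.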

Sequence of PIM1 transgenic cells (Ba/F3) (P11309 whole entry, stated change not applied): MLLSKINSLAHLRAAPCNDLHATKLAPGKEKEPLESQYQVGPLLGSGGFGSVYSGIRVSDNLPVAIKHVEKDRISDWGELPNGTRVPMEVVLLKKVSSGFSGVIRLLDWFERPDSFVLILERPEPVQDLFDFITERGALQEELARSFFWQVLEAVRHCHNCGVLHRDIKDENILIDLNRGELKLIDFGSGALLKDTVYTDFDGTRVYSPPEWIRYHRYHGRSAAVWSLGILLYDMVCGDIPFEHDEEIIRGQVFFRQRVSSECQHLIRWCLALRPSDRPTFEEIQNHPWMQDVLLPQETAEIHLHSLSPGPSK
T1 sequence (P11309 whole entry): as the sequence (P11309 whole entry, stated change not applied) above

| pIC50 [1] | GI50 [2] [nM] | SMILES |
| --- | --- | --- |
| 8.06 | 560 | C[C@H](Nc1cc(-c2n[nH]c(=O)o2)ccc1C(F)(F)F)[C@H]1CC[C@H](NCCO)CC1 [Example 201, 5-[3-{[(1S)-1-{(1r,4S)-4-[(2-hydroxyethyl)amino]cyclohexyl}ethyl]amino}-4-(trifluoromethyl)phenyl]-1,3,4-oxadiazol-2(3H)-one hydrochloride] |
| 8.66 | 30 | C[C@H](Nc1cc(-c2n[nH]c(=O)o2)cc(F)c1OC(F)(F)F)[C@H]1C[C@@H](N)C1 [Example 180, 5-[3-({(1S)-1-[(1s,3R)-3-aminocyclobutyl]ethyl}amino)-5-fluoro-4-(trifluoromethoxy)phenyl]-1,3,4-oxadiazol-2(3H)-one hydrochloride] |
| 7.77 | 440 | CN[C@H]1CC[C@H](CN(C)c2cc(-c3n[nH]c(=O)o3)ccc2C(F)(F)F)CC1 [Example 132, 5-[3-(methyl{[(1r,4r)-4-(methylamino)cyclohexyl]methyl}amino)-4-(trifluoromethyl)phenyl]-1,3,4-oxadiazol-2(3H)-one hydrochloride] |
| 8.00 | 250 | CCOc1c(F)cc(-c2n[nH]c(=O)o2)cc1N[C@@H](C)[C@H]1CC[C@H](N)CC1 [Example 173, 5-[3-({(1S)-1-[(1r,4S)-4-aminocyclohexyl]ethyl}amino)-4-ethoxy-5-fluorophenyl]-1,3,4-oxadiazol-2(3H)-one dihydrochloride] |
| 7.96 | 220 | C[C@H](Nc1cc(-c2n[nH]c(=O)o2)ccc1C(F)(F)F)C1CC2(CCNCC2)C1 [Example 142, 5-[3-{[(1S)-1-(7-azaspiro[3.5]nonan-2-yl)ethyl]amino}-4-(trifluoromethyl)phenyl]-1,3,4-oxadiazol-2(3H)-one hydrochloride] |
| 8.31 | 110 | C[C@H](Nc1cc(-c2n[nH]c(=O)o2)cc(F)c1C(F)(F)F)[C@@H]1CCNC[C@@H]1C [Example 211, 5-[3-fluoro-5-({(1S)-1-[(3R,4R)-3-methylpiperidin-4-yl]ethyl}amino)-4-(trifluoromethyl)phenyl]-1,3,4-oxadiazol-2(3H)-one] |
| 8.08 | 920 | N[C@@H]1CCCN(CCNc2cc(-c3n[nH]c(=O)o3)ccc2C(F)(F)F)C1 [Example 72, 5-[3-({2-[(3R)-3-aminopiperidin-1-yl]ethyl}amino)-4-(trifluoromethyl)phenyl]-1,3,4-oxadiazol-2(3H)-one dihydrochloride] |
| 8.44 | 81 | O=c1[nH]nc(-c2ccc(C(F)(F)F)c(N[C@@H](C(F)F)C3CCNCC3)c2)o1 [Example 113, 5-[3-{[(1R)-2,2-difluoro-1-(piperidin-4-yl)ethyl]amino}-4-(trifluoromethyl)phenyl]-1,3,4-oxadiazol-2(3H)-one hydrochloride] |
| 8.05 | 1300 | O=c1[nH]nc(-c2ccc(C(F)(F)F)c(NCCC3CCNCC3)c2)o1 [Example 64, 5-[3-{[2-(piperidin-4-yl)ethyl]amino}-4-(trifluoromethyl)phenyl]-1,3,4-oxadiazol-2(3H)-one hydrochloride] |
| 8.24 | 410 | N[C@H]1CC[C@H](Nc2cc(-c3n[nH]c(=O)o3)ccc2Cl)CC1 [Example 32, 5-(3-{[(1r,4r)-4-aminocyclohexyl]amino}-4-chlorophenyl)-1,3,4-oxadiazol-2(3H)-one] |
| 7.96 | 590 | C[C@H](Nc1cc(-c2n[nH]c(=O)o2)c(F)cc1Cl)C1CCNCC1 [Example 95, 5-(4-chloro-2-fluoro-5-{[(1S)-1-(piperidin-4-yl)ethyl]amino}phenyl)-1,3,4-oxadiazol-2(3H)-one hydrochloride] |
| 6.85 | 4200 | N[C@H]1CC[C@H](CNc2cc(-c3n[nH]c(=O)o3)ccc2-c2ccccc2)CC1 [Example 71, 5-[2-({[(1r,4r)-4-aminocyclohexyl]methyl}amino)[1,1′-biphenyl]-4-yl]-1,3,4-oxadiazol-2(3H)-one hydrochloride] |
| 7.74 | 1100 | O=c1[nH]nc(-c2ccc(C(F)(F)F)c(C#CC3CCNCC3)c2)o1 [Example 29, 5-{3-[(piperidin-4-yl)ethynyl]-4-(trifluoromethyl)phenyl}-1,3,4-oxadiazol-2(3H)-one hydrochloride] |
| 6.54 | 2600 | O=c1[nH]nc(-c2ccc(C(F)(F)F)c(N[C@@H]3CCC34CCNCC4)c2)o1 [Example 46, 5-[3-{[(1R)-7-azaspiro[3.5]nonan-1-yl]amino}-4-(trifluoromethyl)phenyl]-1,3,4-oxadiazol-2(3H)-one hydrochloride] |
| 8.66 | 150 | N[C@H]1CC[C@@H](CNc2cc(-c3n[nH]c(=O)o3)ccc2C(F)(F)F)CC1 [Example 74, 5-[3-({[(1s,4s)-4-aminocyclohexyl]methyl}amino)-4-(trifluoromethyl)phenyl]-1,3,4-oxadiazol-2(3H)-one hydrochloride] |
| 8.62 | 19 | C[C@@H]1CNCC[C@@H]1[C@H](C)Nc1cc(-c2n[nH]c(=O)o2)cc(F)c1Cl [Example 222, 5-[4-chloro-3-fluoro-5-({(1S)-1-[(3S,4S)-3-methylpiperidin-4-yl]ethyl}amino)phenyl]-1,3,4-oxadiazol-2(3H)-one] |
| 7.51 | 1300 | N[C@H]1CC[C@H](CCNc2cc(-c3n[nH]c(=O)o3)ccc2C(F)(F)F)CC1 [Example 117, 5-[3-({2-[(1r,4r)-4-aminocyclohexyl]ethyl}amino)-4-(trifluoromethyl)phenyl]-1,3,4-oxadiazol-2(3H)-one hydrochloride] |
| 7.28 | 2400 | O=c1[nH]nc(-c2ccc(C(F)(F)F)c(N3CCC4(CC3)CNC4)c2)o1 [Example 16, 5-[3-(2,7-diazaspiro[3.5]nonan-7-yl)-4-(trifluoromethyl)phenyl]-1,3,4-oxadiazol-2(3H)-one hydrochloride] |
| 7.92 | 100 | CC(Nc1cc(-c2n[nH]c(=O)o2)ccc1C(F)(F)F)C1(C)CCNCC1 (stereo not shown) [Example 115, 5-[3-{[1-(4-methylpiperidin-4-yl)ethyl]amino}-4-(trifluoromethyl)phenyl]-1,3,4-oxadiazol-2(3H)-one] |
| 7.60 | 6500 | C[C@H](Nc1cc(-c2n[nH]c(=O)o2)cc(S(F)(F)(F)(F)F)c1)C1CCNCC1 [Example 107, 5-[3-(pentafluoro-λ^6-sulfanyl)-5-{[(1S)-1-(piperidin-4-yl)ethyl]amino}phenyl]-1,3,4-oxadiazol-2(3H)-one hydrochloride] |
| 8.46 | 2100 | C[C@H](Nc1cc(-c2n[nH]c(=O)o2)cc(C#N)c1Cl)C1CCNCC1 [Example 110, 2-chloro-5-(5-oxo-4,5-dihydro-1,3,4-oxadiazol-2-yl)-3-{[(1S)-1-(piperidin-4-yl)ethyl]amino}benzonitrile hydrochloride] |
| 8.70 | 23 | C[C@H](Nc1cc(-c2n[nH]c(=O)o2)cc(Cl)c1Cl)[C@H]1C[C@@H](N)C1 [Example 179, 5-[3-({(1S)-1-[(1s,3R)-3-aminocyclobutyl]ethyl}amino)-4,5-dichlorophenyl]-1,3,4-oxadiazol-2(3H)-one dihydrochloride] |
| 8.00 | 110 | C[C@H](Nc1cc(-c2n[nH]c(=O)o2)ccc1Cl)[C@H]1C[C@@H](N)C1(C)C [Example 168, 5-[3-({(1S)-1-[(1S,3R)-3-amino-2,2-dimethylcyclobutyl]ethyl}amino)-4-chlorophenyl]-1,3,4-oxadiazol-2(3H)-one] |
| 7.70 | 550 | N[C@H]1CC[C@H](Nc2cc(-c3n[nH]c(=O)o3)ccc2OC(F)(F)F)CC1 [Example 38, 5-[3-{[(1r,4r)-4-aminocyclohexyl]amino}-4-(trifluoromethoxy)phenyl]-1,3,4-oxadiazol-2(3H)-one hydrochloride] |
| 7.62 | 970 | O=c1[nH]nc(-c2ccc(C(F)(F)F)c(/C=C/C3CCNCC3)c2)o1 [Example 30, 5-{3-[(E)-2-(piperidin-4-yl)ethenyl]-4-(trifluoromethyl)phenyl}-1,3,4-oxadiazol-2(3H)-one hydrochloride] |
| 7.48 | 4500 | NCc1ccc(-c2cc(-c3n[nH]c(=O)o3)ccc2C(F)(F)F)cc1 [Example 20, 5-[4′-(aminomethyl)-6-(trifluoromethyl)[1,1′-biphenyl]-3-yl]-1,3,4-oxadiazol-2(3H)-one hydrochloride] |
| 7.92 | 550 | C[C@H](Nc1cc(Cl)cc(-c2n[nH]c(=O)o2)c1)C1CCNCC1 [Example 105, 5-(3-chloro-5-{[(1S)-1-(piperidin-4-yl)ethyl]amino}phenyl)-1,3,4-oxadiazol-2(3H)-one dihydrochloride] |
| 8.59 | 80 | CC[C@H](Nc1cc(-c2n[nH]c(=O)o2)cc(F)c1Cl)C1CCNCC1 [Example 139, 5-(4-chloro-3-fluoro-5-{[(1S)-1-(piperidin-4-yl)propyl]amino}phenyl)-1,3,4-oxadiazol-2(3H)-one hydrochloride] |
| 7.96 | 2300 | C[C@H](Nc1cc(-c2n[nH]c(=O)o2)ccc1C(F)(F)F)C12C3C4C1C1C2C3C41N (stereo partly drawn) [Example 186, 5-[3-({(1S)-1-[(2S,3R)-4-aminocuban-1-yl]ethyl}amino)-4-(trifluoromethyl)phenyl]-1,3,4-oxadiazol-2(3H)-one hydrochloride] |
